Measured values as given in patent publication US8124610B2, “Sodium channel inhibitors” (Icagen Inc., priority 2007, dated 2012).
Like-named read-outs stand apart in the source and are kept apart here.

Tests used:
[1] = cited from earlier work
hSCN3A = target: T1, hSCN3A (Homo sapiens, UniProt Q9NY46); assay: Whole-cell patch-clamp electrophysiology (conventional or PatchXpress), HEK cells expressing hSCN3A, estimated IC-50; type: cell-based; conditions: read-out: SCN3A EIC-50
T1 construct: expressed in transfected cells
In short: (§1)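 Stably transfected HEK cells recorded by whole-cell voltage clamp (manual or PatchXpress) at 22–24 °C in pH 7.4 HEPES-buffered extracellular solution. Cells held at the empirically determined inactivation V1/2 after an 8 s prepulse, then stepped to 0 mV for 20 ms; % inhibition from current amplitude before vs after compound.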

hSCN9A = target: T2, hSCN9A (Homo sapiens, UniProt Q15858); assay: Whole-cell patch-clamp electrophysiology (conventional or PatchXpress), HEK cells expressing hSCN9A, estimated IC-50; type: cell-based; conditions: read-out: SCN9A EIC-50
T2 construct: expressed in transfected cells
In short: as §1

Nav1.3 = Nav1.3 (Homo sapiens, UniProt Q9NY46); conditions: read-out: TTX IC-50; cited from earlier work
Nav1.6 = Nav1.6 (Homo sapiens, UniProt Q9UQD0); conditions: read-out: TTX IC-50; cited from earlier work
Nav1.8 = Nav1.8 (Homo sapiens, UniProt Q9Y5Y9); conditions: read-out: TTX IC-50; cited from earlier work
Nav1.9 = Nav1.9 (Homo sapiens, UniProt Q9UI33); conditions: read-out: TTX IC-50; cited from earlier work
Nav1.1 = Nav1.1 (Homo sapiens, UniProt P35498); conditions: read-out: TTX IC-50; cited from earlier work
Nav1.2 = Nav1.2 (Homo sapiens, UniProt Q99250); conditions: read-out: TTX IC-50; cited from earlier work
[2] = Table V, estimated IC-50 from single point electrophysiology, cells clamped at V1/2
[3] = estimated IC-50, HEK cells expressing hSCN3A, class symbols or bounds
[4] = estimated IC-50, HEK cells expressing hSCN9A, class symbols or bounds

T1 sequence (Q9NY46 whole entry): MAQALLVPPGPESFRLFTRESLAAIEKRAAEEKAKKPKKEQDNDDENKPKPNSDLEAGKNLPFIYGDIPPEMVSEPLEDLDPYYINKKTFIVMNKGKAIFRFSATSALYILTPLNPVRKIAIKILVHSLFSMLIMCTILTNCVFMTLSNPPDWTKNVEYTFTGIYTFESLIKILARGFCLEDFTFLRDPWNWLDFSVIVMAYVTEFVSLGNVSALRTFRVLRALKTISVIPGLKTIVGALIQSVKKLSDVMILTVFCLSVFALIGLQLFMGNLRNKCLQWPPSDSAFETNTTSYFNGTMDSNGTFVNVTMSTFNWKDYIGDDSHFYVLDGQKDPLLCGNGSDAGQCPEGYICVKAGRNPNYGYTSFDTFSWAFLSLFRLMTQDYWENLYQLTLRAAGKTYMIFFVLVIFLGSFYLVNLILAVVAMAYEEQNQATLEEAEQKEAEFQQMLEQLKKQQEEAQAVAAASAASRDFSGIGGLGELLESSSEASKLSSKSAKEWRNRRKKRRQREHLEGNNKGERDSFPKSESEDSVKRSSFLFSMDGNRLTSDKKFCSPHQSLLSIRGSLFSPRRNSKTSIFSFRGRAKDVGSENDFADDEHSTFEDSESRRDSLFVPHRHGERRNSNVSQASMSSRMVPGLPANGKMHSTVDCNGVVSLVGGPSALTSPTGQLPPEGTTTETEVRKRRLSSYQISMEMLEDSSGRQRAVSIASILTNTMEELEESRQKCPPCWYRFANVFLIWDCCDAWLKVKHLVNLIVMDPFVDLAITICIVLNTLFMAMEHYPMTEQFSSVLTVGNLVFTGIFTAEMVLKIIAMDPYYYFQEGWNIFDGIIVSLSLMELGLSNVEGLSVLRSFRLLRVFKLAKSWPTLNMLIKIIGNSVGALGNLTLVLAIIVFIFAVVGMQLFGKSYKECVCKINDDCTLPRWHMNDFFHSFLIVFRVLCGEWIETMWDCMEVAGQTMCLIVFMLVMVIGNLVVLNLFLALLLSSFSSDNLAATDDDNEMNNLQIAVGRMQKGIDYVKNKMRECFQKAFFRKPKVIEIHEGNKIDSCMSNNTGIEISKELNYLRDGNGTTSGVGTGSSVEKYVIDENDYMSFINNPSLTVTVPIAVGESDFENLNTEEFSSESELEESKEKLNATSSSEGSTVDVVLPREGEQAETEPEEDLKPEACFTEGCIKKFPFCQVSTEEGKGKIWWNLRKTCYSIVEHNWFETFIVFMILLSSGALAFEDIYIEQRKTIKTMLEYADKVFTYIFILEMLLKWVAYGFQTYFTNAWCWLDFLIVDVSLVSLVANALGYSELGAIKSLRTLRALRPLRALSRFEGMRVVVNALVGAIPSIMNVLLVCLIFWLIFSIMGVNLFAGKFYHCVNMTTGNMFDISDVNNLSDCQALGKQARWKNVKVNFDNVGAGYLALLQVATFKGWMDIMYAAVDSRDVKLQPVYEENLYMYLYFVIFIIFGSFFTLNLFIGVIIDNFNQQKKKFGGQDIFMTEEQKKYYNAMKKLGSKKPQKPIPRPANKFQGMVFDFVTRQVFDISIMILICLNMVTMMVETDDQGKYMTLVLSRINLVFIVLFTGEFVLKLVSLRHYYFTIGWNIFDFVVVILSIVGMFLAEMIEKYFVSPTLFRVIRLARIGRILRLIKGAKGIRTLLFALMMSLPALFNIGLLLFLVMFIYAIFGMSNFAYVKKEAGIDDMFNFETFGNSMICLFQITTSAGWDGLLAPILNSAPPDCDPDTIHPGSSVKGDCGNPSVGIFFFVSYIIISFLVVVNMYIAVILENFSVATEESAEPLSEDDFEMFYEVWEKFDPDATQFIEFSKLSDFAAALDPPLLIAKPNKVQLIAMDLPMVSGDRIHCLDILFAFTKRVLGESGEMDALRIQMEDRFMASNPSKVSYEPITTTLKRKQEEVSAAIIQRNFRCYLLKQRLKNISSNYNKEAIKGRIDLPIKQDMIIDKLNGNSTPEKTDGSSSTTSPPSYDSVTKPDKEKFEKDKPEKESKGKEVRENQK
T2 sequence (Q15858 whole entry): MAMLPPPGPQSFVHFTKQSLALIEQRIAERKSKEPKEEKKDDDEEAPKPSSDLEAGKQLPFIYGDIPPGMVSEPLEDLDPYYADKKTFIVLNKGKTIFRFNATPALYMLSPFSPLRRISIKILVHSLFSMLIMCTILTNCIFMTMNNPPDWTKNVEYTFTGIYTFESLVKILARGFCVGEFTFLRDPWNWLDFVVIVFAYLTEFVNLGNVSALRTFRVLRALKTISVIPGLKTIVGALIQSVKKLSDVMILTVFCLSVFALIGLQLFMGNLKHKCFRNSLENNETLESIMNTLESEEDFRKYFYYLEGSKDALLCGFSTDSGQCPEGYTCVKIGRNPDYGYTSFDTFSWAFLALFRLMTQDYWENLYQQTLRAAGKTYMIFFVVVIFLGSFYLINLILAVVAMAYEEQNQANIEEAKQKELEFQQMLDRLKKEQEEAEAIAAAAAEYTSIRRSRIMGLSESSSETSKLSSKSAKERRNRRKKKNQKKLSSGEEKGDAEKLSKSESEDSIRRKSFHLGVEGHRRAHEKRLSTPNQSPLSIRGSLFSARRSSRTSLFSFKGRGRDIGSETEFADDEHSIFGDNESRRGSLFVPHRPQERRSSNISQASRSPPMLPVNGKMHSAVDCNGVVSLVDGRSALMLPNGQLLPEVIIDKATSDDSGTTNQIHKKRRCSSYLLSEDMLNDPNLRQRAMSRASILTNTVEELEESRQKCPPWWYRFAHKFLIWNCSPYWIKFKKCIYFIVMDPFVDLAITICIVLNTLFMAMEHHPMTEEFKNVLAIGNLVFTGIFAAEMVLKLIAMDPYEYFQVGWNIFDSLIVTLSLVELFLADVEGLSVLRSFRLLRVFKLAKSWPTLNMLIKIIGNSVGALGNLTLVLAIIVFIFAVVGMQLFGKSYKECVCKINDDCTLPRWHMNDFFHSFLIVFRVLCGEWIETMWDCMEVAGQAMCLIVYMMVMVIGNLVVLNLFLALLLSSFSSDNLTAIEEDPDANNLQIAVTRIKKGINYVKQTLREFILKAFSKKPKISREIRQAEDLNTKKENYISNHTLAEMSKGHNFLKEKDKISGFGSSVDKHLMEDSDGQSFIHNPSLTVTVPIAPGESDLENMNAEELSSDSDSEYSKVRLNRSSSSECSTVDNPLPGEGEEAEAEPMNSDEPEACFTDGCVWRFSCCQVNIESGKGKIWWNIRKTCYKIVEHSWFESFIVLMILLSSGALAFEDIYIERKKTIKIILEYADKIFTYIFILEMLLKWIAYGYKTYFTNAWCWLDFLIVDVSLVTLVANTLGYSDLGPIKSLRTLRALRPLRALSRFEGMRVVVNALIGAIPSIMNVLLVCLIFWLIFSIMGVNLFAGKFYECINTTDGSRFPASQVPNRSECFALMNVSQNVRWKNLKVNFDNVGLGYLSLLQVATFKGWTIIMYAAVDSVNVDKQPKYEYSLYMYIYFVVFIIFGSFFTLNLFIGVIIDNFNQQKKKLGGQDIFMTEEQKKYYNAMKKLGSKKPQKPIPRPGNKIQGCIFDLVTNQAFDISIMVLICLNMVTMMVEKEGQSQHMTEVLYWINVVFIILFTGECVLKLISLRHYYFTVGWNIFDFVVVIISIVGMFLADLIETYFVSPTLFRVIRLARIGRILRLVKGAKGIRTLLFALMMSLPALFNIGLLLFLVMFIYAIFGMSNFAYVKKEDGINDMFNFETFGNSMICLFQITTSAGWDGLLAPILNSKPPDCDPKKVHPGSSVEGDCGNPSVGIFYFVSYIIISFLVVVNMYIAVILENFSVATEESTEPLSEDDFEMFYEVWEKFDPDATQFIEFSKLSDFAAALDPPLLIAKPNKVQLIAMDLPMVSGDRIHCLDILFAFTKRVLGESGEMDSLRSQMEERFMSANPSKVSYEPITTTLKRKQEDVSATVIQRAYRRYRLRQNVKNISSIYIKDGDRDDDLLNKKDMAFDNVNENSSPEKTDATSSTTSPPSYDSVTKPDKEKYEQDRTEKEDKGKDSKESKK
Chain of Nav1.3 (Q9NY46 whole entry, looked up): as the sequence (Q9NY46 whole entry) above

Row | SMILES | IC50 (hSCN3A; [2]) [µM] | IC50 (hSCN9A; [2]) [µM] | IC50 (hSCN3A; [3]) [µM] | IC50 (hSCN9A; [4]) [µM] | further results
1 | NCC1(CC(=O)O)CCCCC1 [gabapentin] | – | – | – | – | patients that respond to gabapentin treatment for neuropathic pain [1]: 30%
2 | O=S(=O)(Nc1nccs1)c1ccc(Nc2cc(C3CC3)nn2-c2ccccc2)cc1F [Compound 32, 4-(3-cyclopropyl-1-phenyl-1H-pyrazol-5-ylamino)-2-fluoro-N-(thiazol-2-yl)benzenesulfonamide] | < 2 | < 2 | – | – | –
3 | CCN(CC)C(=O)Cc1cc(Nc2ccc(S(=O)(=O)Nc3nccs3)c(F)c2)n(-c2ccccc2)n1 [Compound 216, N,N-diethyl-2-(5-(3-fluoro-4-(N-thiazol-2-ylsulfamoyl)phenylamino)-1-phenyl-1H-pyrazol-3-yl)ethanamide] | – | – | > 1 | < 2 | –
4 | COc1ccc(CCNCc2csc(Nc3ccc(S(=O)(=O)Nc4nccs4)cc3)n2)cc1OC [Compound 66, 4-(4-((3,4-dimethoxyphenethylamino)methyl)thiazol-2-ylamino)-N-(thiazol-2-yl)benzenesulfonamide] | – | – | > 1 | > 3 | –
5 | CS(=O)(=O)c1ccc(Cc2csc(Nc3ccc(S(=O)(=O)Nc4nccs4)c(F)c3)n2)cc1 [Compound 4, 2-Fluoro-4-[4-(4-methanesulfonyl-benzyl)-thiazol-2-ylamino]-N-thiazol-2-yl-benzenesulfonamide] | < 2 | 2 to 10 | – | – | –
6 | O=S(=O)(Nc1nccs1)c1ccc(Nc2cnn(Cc3ccc(Cl)cc3)c2)nc1 [Compound 228, 6-(1-(4-chlorobenzyl)-1H-pyrazol-4-ylamino)-N-(thiazol-2-yl)pyridine-3-sulfonamide] | – | – | < 2 | 2 to 10 | –
7 | O=S(=O)(Nc1nccs1)c1ccc(Nc2nc(CNC3CCCCCC3)cs2)cc1 [Compound 74, 4-(4-((cycloheptylamino)methyl)thiazol-2-ylamino)-N-(thiazol-2-yl)benzenesulfonamide] | – | – | 2 to 10 | 2 to 10 | –
8 | O=S(=O)(Nc1nccs1)c1ccc(Nc2cc(Cc3ccc(Cl)cc3)n[nH]2)cc1 [Compound 16, 4-(3-(4-Chlorobenzyl)-1H-pyrazol-5-ylamino)-N-(thiazol-2-yl)benzenesulfonamide] | < 2 | < 2 | – | – | –
9 | Cc1nc(Nc2ccc(S(=O)(=O)Nc3nccs3)cc2)sc1C [Compound 80, 4-(4,5-dimethylthiazol-2-ylamino)-N-(thiazol-2-yl)benzenesulfonamide] | – | – | 2 to 10 | > 1 | –
10 | O=S(=O)(Nc1nccs1)c1ccc(Nc2ccn(Cc3ccc(Cl)cc3)n2)c(F)c1 [Compound 184, 4-(1-(4-chlorobenzyl)-1H-pyrazol-3-ylamino)-3-fluoro-N-(thiazol-2-yl)benzenesulfonamide] | – | – | < 2 | < 2 | –
11 | CC(C)(C)c1csc(Nc2ccc(S(=O)(=O)Nc3nccs3)c(Cl)c2)n1 [Compound 10, 4-(4-Tert-butyl-thiazol-2-ylamino)-2-chloro-N-thiazol-2-yl-benzenesulfonamide] | < 2 | 2 to 10 | – | – | –
12 | N#Cc1ccc(Cc2csc(Nc3ccc(S(=O)(=O)Nc4nccs4)c(F)c3)n2)cc1 [Compound 5, 4-[4-(4-Cyano-benzyl)-thiazol-2-ylamino]-2-fluoro-N-thiazol-2-yl-benzenesulfonamide] | < 2 | 2 to 10 | – | – | –
13 | COc1ccc(Cc2csc(Nc3ccc(S(=O)(=O)Nc4nccs4)c(F)c3)n2)cc1 [Compound 3, 2-Fluoro-4-[4-(4-methoxy-benzyl)-thiazol-2-ylamino]-N-thiazol-2-yl-benzenesulfonamide] | < 2 | > 10 | – | – | –
14 | O=S(=O)(Nc1nccs1)c1ccc(Nc2nc(C[S+]([O-])c3ccc(F)cc3)cs2)cc1 (stereo not drawn) [Compound 89, 4-(4-((4-fluorophenylsulfinyl)methyl)thiazol-2-ylamino)-N-(thiazol-2-yl)benzenesulfonamide] | – | – | 2 to 10 | > 1 | –
15 | O=S(=O)(Nc1nccs1)c1ccc(Nc2nccc(OCC(c3ccccc3)c3ccccc3)n2)cc1 [Compound 46, 4-(4-(2,2-diphenylethoxy)pyrimidin-2-ylamino)-N-(thiazol-2-yl)benzenesulfonamide] | – | – | < 2 | > 10 | –
16 | Cc1cc(Cl)ccc1OCc1csc(Nc2ccc(S(=O)(=O)Nc3nccs3)cc2)n1 [Compound 96, 4-(4-((4-chloro-2-methylphenoxy)methyl)thiazol-2-ylamino)-N-(thiazol-2-yl)benzenesulfonamide] | – | – | < 2 | < 2 | –
17 | CC(C)(C)n1nc(Cc2ccc(Cl)cc2)cc1Nc1ccc(S(=O)(=O)Nc2nccs2)c(F)c1 [Compound 26, 4-(1-tert-butyl-3-(4-chlorobenzyl)-1H-pyrazol-5-ylamino)-2-fluoro-N-(thiazol-2-yl)benzenesulfonamide] | < 2 | < 2 | – | – | –
18 | NC1=N[C@H](O)[C@H]2[C@H]3O[C@]4(O)O[C@@H]([C@@H](O)[C@@]2(N1)[C@@H]4O)[C@]3(O)CO [TTX, tetrodotoxin] | – | – | – | – | IC50 (Nav1.3): 0.015 µM; IC50 (Nav1.6): 0.006 µM; IC50 (Nav1.8): 50 µM; IC50 (Nav1.9): 1 µM; IC50 (Nav1.1): 0.01 µM; IC50 (Nav1.2): 0.01 µM
